Patent publication US9550764B2, “Fused heterocyclic compounds and their use” (The Institute of Cancer Research: Royal Cancer Hospital, priority 2012, dated 2017)
Where two headings read alike, the source gives them in different places.

Columns and labels:
SMOV2 (A) = experiment: SRB proliferation assay, SMOV2 (PPM1D amplified); format: cell-based; conditions: Homo sapiens, SMOV2, PP1MD amplified cell line (A)
Text: (§1) All cell lines were obtained from ATCC except KPL1 which was obtained from Leibniz Institute DSMZ-German Collection of Microorganisms and Cell Cultures, and SMOV2 which was obtained from Dr. Hiroaki Itamochi (Tottori University School of Medicine, Yonago, Japan; see also: ‘Establishment and characterization of human ovarian clear cell adenocarcinoma cell line (SMOV-2), and its cytotoxity by anticancer agents’, Yonamine K at al., Hum Cell., 1999, 12(3), 139-48; and ‘PPM1D Is a Potential Therapeutic Target in Ovarian Clear Cell Carcinoma’, David S. P. Tan et al., Clin Cancer Res, 2009, 15, 2269).
(§2) Representative compounds were assessed in a sulforhodamine B (SRB) proliferation assay in the cell lines shown in the Tables below, according to the following general procedure:
(§3) Cells were seeded in a 96 well plate at a number optimized for each cell line as known in the art; for example as described in Viachai et al, Nature Protocols, 2006, 1 1112-1116. Two fold dilutions of the compounds to be tested were made in culture medium so that, when diluted 5×, the final concentration in the wells was from 50 μM to 0.000191 μM (19 concentrations). A day after seeding the cells in 96 well plates, 25 μl of the compound diluted in the culture medium was added to 100 μl of the cells and incubated at 37° C. and 5% CO2 for 3 or 5 more days as required. After this time, cells were fixed by adding 10% ice cold TCA (in H2O) to 3% final concentration in the wells and by incubating at 4° C. for at least 2 h. Plates were washed 4 times in H2O and allowed to dry in the air. Added 100 μl of 0.057% SRB solution to the dried plates and incubated at room temperature for at least 30 min. Removed SRB solution from the plates and washed four times with 1% acetic acid. Plates were left overnight to dry in the air followed by addition of 100 μl of 10 mM Tris pH 10.5 to each well of the dried plates and incubation on a shaker for 5 min to solubilize the SRB. Optical density was measured at wave length of 490 nm using a plate reader and analysis performed to measure the GI50 using GraphPad PRISM.

TOV21G (NA) = experiment: SRB proliferation assay, TOV21G (non-amplified control); format: cell-based; conditions: 5-day incubation, control not amplified (NA)
Text: as §1, §2, §3

[1] = 72 h, 3-day incubation, read-out: GI50 3-day SMOV2 (A) SRB
[2] = 120 h, 5-day incubation, read-out: GI50 5-day SMOV2 (A) SRB

Row | Structure (SMILES) | GI50 (SMOV2 (A); [1]) | GI50 (SMOV2 (A); [2]) | GI50 (TOV21G (NA); Homo sapiens, 120 h) | GI50 (TOV21G (NA))
1 | O=C1Cc2cc(-c3csc(-c4ccc(F)cc4F)n3)c(Cl)cc2N1 [Compound 29, 6-chloro-5-(2-(2,4-difluorophenyl)thiazol-4-yl)indolin-2-one] | 1900 nM | – | – | –
2 | CCc1cc(F)ccc1-c1nc(-c2ccc3[nH]c(=O)[nH]c3c2)cs1 [Compound 22, 5-(2-(2-ethyl-4-fluorophenyl)thiazol-4-yl)-1H-benzo[d]imidazol-2(3H)-one] | 0.38 nM | 0.2 nM | 660 nM | –
3 | CNCc1cc(F)ccc1-c1nc(-c2ccc3[nH]c(=O)oc3c2)cs1 [Compound 13, 6-(2-(4-fluoro-2-((methylamino)methyl)phenyl)thiazol-4-yl)benzo[d]oxazol-2(3H)-one] | 32 nM | 6 nM | 1600 nM | –
4 | NCCOCc1cc(F)ccc1-c1nc(-c2ccc3[nH]c(=O)oc3c2)cs1 [Compound 19, 6-(2-(2-((2-aminoethoxy)methyl)-4-fluorophenyl)thiazol-4-yl)benzo[d]oxazol-2(3H)-one] | 1.4 nM | 5 nM | 1200 nM | 1700 nM
5 | O=c1[nH]c2ccc(-c3csc(-c4ccc(F)cc4COCc4ccccc4)n3)cc2o1 [Compound 10, 6-(2-(2-((benzyloxy)methyl)-4-fluorophenyl)thiazol-4-yl)benzo[d]oxazol-2(3H)-one] | 300 nM | – | – | –
6 | Cc1cc(F)cc(C)c1-c1nc(-c2ccc3[nH]c(=O)oc3c2)cs1 [Compound 25, 6-(2-(4-fluoro-2,6-dimethylphenyl)thiazol-4-yl)benzo[d]oxazol-2(3H)-one] | 500 nM | – | – | –
7 | CCc1cc(F)ccc1-c1nc(-c2ccc3[nH]c(=O)oc3c2)cs1 [Compound 5, 6-(2-(2-ethyl-4-fluorophenyl)thiazol-4-yl)benzo[d]oxazol-2(3H)-one] | 13 nM | 9.7 nM | > 10000 nM | –
8 | O=c1[nH]c2ccc(-c3csc(-c4ccc(F)cc4F)n3)cc2o1 [Compound 11, 6-(2-(2,4-difluorophenyl)thiazol-4-yl)benzo[d]oxazol-2(3H)-one] | 7 nM | 0.75 nM | > 10000 nM | –
9 | O=C1Cc2cc(-c3csc(-c4ccc(F)cc4)n3)c(Cl)cc2N1 [Compound 28, 6-chloro-5-(2-(4-fluorophenyl)thiazol-4-yl)indolin-2-one] | 93 nM | – | – | –
10 | O=c1[nH]c2ccc(-c3csc(-c4ccc(F)cc4COCCO)n3)cc2o1 [Compound 18, 6-(2-(4-fluoro-2-((2-hydroxyethoxy)methyl)phenyl)thiazol-4-yl)benzo[d]oxazol-2(3H)-one] | 1.7 nM | 0.9 nM | 9500 nM | –
11 | O=c1[nH]c2ccc(-c3csc(-c4ccc(F)cc4C4CC4)n3)cc2o1 [Compound 6, 6-(2-(2-cyclopropyl-4-fluorophenyl)thiazol-4-yl)benzo[d]oxazol-2(3H)-one] | 200 nM | – | – | –
12 | O=c1[nH]c2ccc(-c3csc(-c4ccc(F)c(F)c4)n3)cc2o1 [Compound 24, 6-(2-(3,4-difluorophenyl)thiazol-4-yl)benzo[d]oxazol-2(3H)-one] | 290 nM | – | – | –
13 | C=CCc1cc(F)ccc1-c1nc(-c2ccc3[nH]c(=O)oc3c2)cs1 [Compound 7, 6-(2-(2-allyl-4-fluorophenyl)thiazol-4-yl)benzo[d]oxazol-2(3H)-one] | 77 nM | – | – | –
14 | Cc1cc(-c2nc(-c3ccc4[nH]c(=O)oc4c3)cs2)ccc1F [Compound 23, 6-(2-(4-fluoro-3-methylphenyl)thiazol-4-yl)benzo[d]oxazol-2(3H)-one] | 250 nM | – | – | –
15 | Cc1cc(F)ccc1-c1cccc(-c2ccc3[nH]c(=O)oc3c2)n1 [Compound 31, 6-(6-(4-fluoro-2-methylphenyl)pyridin-2-yl)benzo[d]oxazol-2(3H)-one] | > 10000 nM | – | – | –
16 | Cc1c(F)ccc(-c2nc(-c3ccc4[nH]c(=O)oc4c3)cs2)c1F [Compound 26, 6-(2-(2,4-difluoro-3-methylphenyl)thiazol-4-yl)benzo[d]oxazol-2(3H)-one] | > 10000 nM | – | – | –
17 | O=c1[nH]c2ccc(-c3csc(-c4ccc(F)cc4CN4CCOCC4)n3)cc2o1 [Compound 15, 6-(2-(4-fluoro-2-(morpholinomethyl)phenyl)thiazol-4-yl)benzo[d]oxazol-2(3H)-one] | 520 nM | – | – | –
